Experimental data reported in patent US20110038885A1, “CHEMOKINE ANALOGS” (priority 2007, published 2011).
Bridge positions count the residues as written; N and C are the ends. Square brackets hold non-standard residues; d marks the D form. Peptide text beside a SMILES is read from it. * marks the point of attachment. d(pGlu) = O=C1CC[C@H](C(=O)O)N1; Lauroyl = CCCCCCCCCCCC(=O)*; Octanoyl = CCCCCCCC(=O)*; Dap = NC[C@H](N)C(=O)O; Butyryl = CCCC(=O)*; X2 = CCCCCCO*

Legend:
[1] = system: IL-8; experiment: In vitro chemotaxis, inhibition v IL-8; format: cell-based, human; parameters: concentration or dose not given beside the values
Procedure, shortened: (§1)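 Human THP-1 monocytes (10^4-10^6) with agent at varying concentrations in upper trans-well chamber; IL-8 or MCP-1 in lower chamber at a migration-inducing concentration, 37° C for e.g. 4 hours. Migrated cells quantified by MTT (595 nm) against a THP-1 standard curve; cytotoxicity and non-chemokine chemoattractant controls run.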

[2] = Half-life in rat in vivo; settings: for half-life: read-out: T ½ rat in vivo
[3] = system: MCP-1; experiment: In vitro chemotaxis (trans-well migration) v MCP-1; format: cell-based, human
Procedure, shortened: as §1

Row | Structure (SMILES) | v IL-8 inhibition (%) [1] [%] | half-life [2] [min] | EC50 [3] [nM] | T ½ rat in vivo [2] [min]
1 | CC[C@H](C)[C@@H]1NC(=O)[C@H](Cc2c[nH]c3ccccc23)NC(=O)[C@H](CCCCN)NC(=O)[C@H](CCC(N)=O)NC(=O)[C@H](CCCCN)NC(=O)[C@@H]2CCCN2C(=O)[C@H](CC(=O)O)NC(=O)[C@H](CC(C)C)NC(=O)[C@@H](NC(C)=O)CSSC[C@@H](C(N)=O)NC(=O)[C@H](CCC(N)=O)NC1=O [Example 9, Ac-c(Cys-Leu-Asp-Pro-Lys-Gln-Lys-Trp-Ile-Gln-Cys)-NH2] (Ac-CLDPKQKWIQC-NH2; disulfide 1-11) | 102.3 | 5.4 | 2 | 
2 | CC[C@H](C)[C@@H]1NC(=O)[C@H](Cc2c[nH]c3ccccc23)NC(=O)[C@H](CCCCN)NC(=O)[C@H](CCC(N)=O)NC(=O)[C@H](CCCCN)NC(=O)[C@@H]2CCCN2C(=O)[C@H](CC(=O)O)NC(=O)[C@@H](NC(=O)[C@H](CC(C)C)NC(C)=O)CSSC[C@@H](C(N)=O)NC(=O)[C@H](CCC(N)=O)NC1=O [Example 19, Ac-Leu-c(Cys-Asp-Pro-Lys-Gln-Lys-Trp-Ile-Gln-Cys)-NH2] (Ac-LCDPKQKWIQC-NH2; disulfide 2-11) | 100.5 | < 5 | 7 | 
3 | CC[C@H](C)[C@@H]1NC(=O)[C@H](Cc2c[nH]c3ccccc23)NC(=O)[C@H](CCCCN)NC(=O)[C@H](CCC(N)=O)NC(=O)[C@H](CCCCN)NC(=O)[C@@H]2CCCN2C(=O)[C@@H](NC(=O)[C@H](CC(=O)O)NC(=O)[C@H](CC(C)C)NC(C)=O)CSSC[C@@H](C(N)=O)NC(=O)[C@H](CCC(N)=O)NC1=O [Example 20, Ac-Leu-Asp-c(Cys-Pro-Lys-Gln-Lys-Trp-Ile-Gln-Cys)-NH2] (Ac-LDCPKQKWIQC-NH2; disulfide 3-11) | 93.9 | 2.7 | 8 | 4.7
4 | CC[C@H](C)[C@@H]1NC(=O)[C@H](Cc2c[nH]c3ccccc23)NC(=O)[C@H](CCCCN)NC(=O)[C@H](CCC(N)=O)NC(=O)[C@H](CCCCN)NC(=O)[C@@H](NC(=O)[C@@H]2CCCN2C(=O)[C@H](CC(=O)O)NC(=O)[C@H](CC(C)C)NC(C)=O)CSSC[C@@H](C(N)=O)NC(=O)[C@H](CCC(N)=O)NC1=O [Example 21, Ac-Leu-Asp-Pro-c(Cys-Lys-Gln-Lys-Trp-Ile-Gln-Cys)-NH2] (Ac-LDPCKQKWIQC-NH2; disulfide 4-11) | 96.3 | 22 | 7 | 
5 | CC[C@H](C)[C@@H]1NC(=O)[C@H](Cc2c[nH]c3ccccc23)NC(=O)[C@@H](CCCCN)NC(=O)[C@H](CCC(N)=O)NC(=O)[C@H](CCCCN)NC(=O)[C@@H]2CCCN2C(=O)[C@H](CC(=O)O)NC(=O)[C@H](CC(C)C)NC(=O)[C@@H](NC(C)=O)CSSC[C@@H](C(N)=O)NC(=O)[C@H](CCC(N)=O)NC1=O [Example 27, Ac-c(Cys-Leu-Asp-Pro-Lys-Gln-D-Lys-Trp-Ile-Gln-Cys)-NH2] (Ac-CLDPKQ[dK]WIQC-NH2; disulfide 1-11) | 91.0 | 22.7 | 7 | 
6 | CC[C@H](C)[C@@H]1NC(=O)[C@H](Cc2c[nH]c3ccccc23)NC(=O)[C@H](CCCCN)NC(=O)[C@@H](CCC(N)=O)NC(=O)[C@H](CCCCN)NC(=O)[C@@H]2CCCN2C(=O)[C@H](CC(=O)O)NC(=O)[C@H](CC(C)C)NC(=O)[C@@H](NC(C)=O)CSSC[C@@H](C(N)=O)NC(=O)[C@H](CCC(N)=O)NC1=O [Example 28, Ac-c(Cys-Leu-Asp-Pro-Lys-D-Gln-Lys-Trp-Ile-Gln-Cys)-NH2] (Ac-CLDPK[dQ]KWIQC-NH2; disulfide 1-11) | 96.9 | 14 | 4 | 
7 | CC[C@H](C)[C@@H]1NC(=O)[C@H](Cc2c[nH]c3ccccc23)NC(=O)[C@H](CCCCN)NC(=O)[C@H](CCC(N)=O)NC(=O)[C@H](CCCCN)NC(=O)[C@H]2CCCN2C(=O)[C@H](CC(=O)O)NC(=O)[C@H](CC(C)C)NC(=O)[C@@H](NC(C)=O)CSSC[C@@H](C(N)=O)NC(=O)[C@H](CCC(N)=O)NC1=O [Example 30, Ac-c(Cys-Leu-Asp-D-Pro-Lys-Gln-Lys-Trp-Ile-Gln-Cys)-NH2] (Ac-CLD[dP]KQKWIQC-NH2; disulfide 1-11) | 99.2 | < 10 | 8 | 
8 | CC[C@H](C)[C@@H]1NC(=O)[C@H](Cc2c[nH]c3ccccc23)NC(=O)[C@H](CCCCN)NC(=O)[C@@H](NC(=O)[C@H](CCC(N)=O)NC(=O)[C@@H](N)CCCCN)CSSC[C@@H](C(N)=O)NC(=O)[C@H](CCC(N)=O)NC1=O [Example 48, Lys-Gln-c(Cys-Lys-Trp-Ile-Gln-Cys)-NH2] (H-KQCKWIQC-NH2; disulfide 3-8) | 91.9 | < 5 | 8 | 
9 | CC[C@H](C)[C@@H]1NC(=O)[C@H](Cc2c[nH]c3ccccc23)NC(=O)[C@H](CCCCN)NC(=O)[C@@H](NC(=O)[C@H]2CCC(=O)N2)CSSC[C@@H](C(N)=O)NC(=O)[C@H](CCC(N)=O)NC1=O [Example 53, DpGlu-c(Cys-Lys-Trp-Ile-Gln-Cys)-NH2] ([d(pGlu)]CKWIQC-NH2; disulfide 2-7) |  | 19.4 | 6 | 23.1
10 | CC[C@H](C)[C@@H]1NC(=O)[C@H](Cc2c[nH]c3ccccc23)NC(=O)[C@H](CCCCN)NC(=O)[C@@H](NC(=O)[C@H](CCC(N)=O)NC(C)=O)CSSC[C@@H](C(N)=O)NC(=O)[C@H](CCC(N)=O)NC1=O [Example 54, Ac-Gln-c(Cys-Lys-Trp-Ile-Gln-Cys)-NH2] (Ac-QCKWIQC-NH2; disulfide 2-7) |  | 30.3 | 10 | 20.9
11 | CC[C@H](C)[C@@H]1NC(=O)[C@H](Cc2c[nH]c3ccccc23)NC(=O)[C@H](CCCCN)NC(=O)[C@@H](NC(C)=O)CSSC[C@@H](C(N)=O)NC(=O)[C@H](CCC(N)=O)NC1=O [Example 55, Ac-c(Cys-Lys-Trp-Ile-Gln-Cys)-NH2] (Ac-CKWIQC-NH2; disulfide 1-6) |  | 18 | 6 | 16.5
12 | CCCCCCCC(=O)NCCCC[C@H](NC(=O)[C@H](CC(=O)O)NC(=O)[C@H]1CSSC[C@@H](N)C(=O)N[C@H](CCC(N)=O)C(=O)N[C@H]([C@H](C)CC)C(=O)N[C@H](Cc2c[nH]c3ccccc23)C(=O)N[C@H](CCCCN)C(=O)N[C@H](CCC(N)=O)C(=O)N[C@H](CCCCN)C(=O)N2CCC[C@@H]2C(=O)N[C@H](CC(=O)O)C(=O)N[C@H](CC(C)C)C(=O)N1)C(=O)O [Example 148, c(D-Cys-D-Gln-D-Ile-D-Trp-D-Lys-D-Gln-D-Lys-D-Pro-D-Asp-D-Leu-D-Cys)-Asp-Lys(Nε-octanoyl)-OH] (H-[dC][dQ][dI][dW][dK][dQ][dK][dP][dD][dL][dC]DK(Octanoyl)-OH; disulfide 1-11) | 100.9 | 39 | 6 | 
13 | CCCCCCCC(=O)N[C@@H](CN)C(=O)N[C@@H]1CSSC[C@H](C(N)=O)NC(=O)[C@@H](CC(C)C)NC(=O)[C@@H](CC(=O)O)NC(=O)[C@H]2CCCN2C(=O)[C@@H](CCCCN)NC(=O)[C@@H](CCC(N)=O)NC(=O)[C@@H](CCCCN)NC(=O)[C@@H](Cc2c[nH]c3ccccc23)NC(=O)[C@@H]([C@H](C)CC)NC(=O)[C@@H](CCC(N)=O)NC1=O [Example 160, Octanoyl-Dap-c(D-Cys-D-Gln-D-Ile-D-Trp-D-Lys-D-Gln-D-Lys-D-Pro-D-Asp-D-Leu-D-Cys)-NH2] (Octanoyl-[Dap][dC][dQ][dI][dW][dK][dQ][dK][dP][dD][dL][dC]-NH2; disulfide 2-12) | 100.2 |  | 25 | 
14 | CCCCCCOC(=O)C[C@H]1NC(=O)[C@H]2CCCN2C(=O)[C@@H](CCCCN)NC(=O)[C@@H](CCC(N)=O)NC(=O)[C@@H](CCCCN)NC(=O)[C@@H](Cc2c[nH]c3ccccc23)NC(=O)[C@@H]([C@H](C)CC)NC(=O)[C@@H](CCC(N)=O)NC(=O)[C@H](N)CSSC[C@H](C(N)=O)NC(=O)[C@@H](CC(C)C)NC1=O [Example 161, c(D-Cys-D-Gln-D-Ile-D-Trp-D-Lys-D-Gln-D-Lys-D-Pro-D-Asp(1-hexanol)-D-Leu-D-Cys)-NH2] (H-[dC][dQ][dI][dW][dK][dQ][dK][dP][dD](X2)[dL][dC]-NH2; disulfide 1-11) | 99.8 |  | 8 | 
15 | CC[C@H](C)[C@@H]1NC(=O)[C@H](Cc2c[nH]c3ccccc23)NC(=O)[C@H](CCCCN)NC(=O)[C@H](CCC(N)=O)NC(=O)[C@H](CCCCN)NC(=O)[C@@H]2CCCN2C(=O)[C@H](CC(=O)O)NC(=O)[C@H](CC(C)C)NC(=O)[C@@H](NC(=O)[C@@H](CC(=O)O)NC(=O)[C@H](N)CCCCN)CSSC[C@@H](C(N)=O)NC(=O)[C@H](CCC(N)=O)NC1=O [Example 167, D-Lys-D-Asp-c(Cys-Leu-Asp-Pro-Lys-Gln-Lys-Trp-Ile-Gln-Cys)-NH2] (H-[dK][dD]CLDPKQKWIQC-NH2; disulfide 3-13) | 99.6 |  | 25 | 
16 | CCCCCCCCCCCC(=O)NCCCC[C@H](N)C(=O)N[C@H](C(=O)N[C@H]1CSSC[C@@H](C(N)=O)NC(=O)[C@H](CCC(N)=O)NC(=O)[C@H]([C@@H](C)CC)NC(=O)[C@H](Cc2c[nH]c3ccccc23)NC(=O)[C@H](CCCCN)NC(=O)[C@H](CCC(N)=O)NC(=O)[C@H](CCCCN)NC(=O)[C@@H]2CCCN2C(=O)[C@H](CC(=O)O)NC(=O)[C@H](CC(C)C)NC1=O)[C@@H](C)CC [Example 169, Lys(Nε-dodecanoyl)-Ile-c(Cys-Leu-Asp-Pro-Lys-Gln-Lys-Trp-Ile-Gln-Cys)-NH2] (H-K(Lauroyl)ICLDPKQKWIQC-NH2; disulfide 3-13) | 7.7 |  | > 1000 | 
17 | CCCC(=O)N[C@@H]1CSSC[C@H](C(N)=O)NC(=O)[C@@H](CCCCN)NC(=O)[C@@H](Cc2c[nH]c3ccccc23)NC(=O)[C@@H]([C@H](C)CC)NC(=O)[C@@H](CCC(N)=O)NC1=O [Example 191, nButyryl-c(D-Cys-D-Gln-D-Ile-D-Trp-D-Lys-D-Cys)-NH2] (Butyryl-[dC][dQ][dI][dW][dK][dC]-NH2; disulfide 1-6) |  | 30 | 5 | 
